Source: US10407445B2, “Hepatitis C virus inhibitors” (ENANTA PHARMACEUTICALS, INC., priority 2013, dated 2019)

Columns and labels:
Format in all cases: cell-based
Conditions in all cases: Hepatitis C virus
[1] = test system: GT2a-2a-J6 replicon; test: Stable replicon assay, comparison to daclatasvir, GT2a-2a-J6
Excerpt: (§1) The plasmid pSG-hRlucNeo-JFH1 was generated from pSG-Neo-JFH1 (Kato et al. 2003, Gastroentrology 125:1808-1817). A fragment containing the JFH-1 5′ NTR-hRluc-Neo gene and two unique restriction sites (AgeI and PmeI) was synthesized (Integrated DNA Technologies, Coralville, Iowa). The resulting plasmid was digested with AgeI and PmeI and the excised fragment (5′NTR-hRluc-Neo) was ligated into pSG-Neo-JFH1 digested with the same enzymes to generate pSG-hRlucNeo-JFH1. To allow expression of heterologous NS5A sequences, an NS5A shuttle vector was generated from pSG-Neo-JFH1, in which the entire coding sequence of NS5A plus the first eight codons of NS5B were replaced with an AfeI restriction site. This was done by Infusion cloning (Clontech, Mountain View, Calif.) from two PCR products that were generated using pSG-Neo-JFH1 as a template and the following primer pairs: […]
(§2) Stable HCV replicon cell lines were grown in complete media (Dulbecco's modified Eagle medium [DMEM], 2 mM L-glutamine, 0.1 mM essential amino acids, 1 mM sodium pyruvate, 10% fetal bovine serum) with the addition 500 μg/ml […] (G418). […] For stable and transient replicon assays, luciferase activity of compound-treated cells was measured relative to DMSO-treated cells after 72 h incubation using RENILLA-GLO™ Luciferase Assay (Promega). […]

[2] = test system: GT2a-7a-QC69 replicon; test: Stable replicon assay, comparison to daclatasvir, GT2a-7a-QC69
Excerpt: as §1, §2

[3] = test system: HCV genotype 1a replicon, NS5A K24N Q30R; test: Transient replication assay, GT1a NS5A K24N Q30R
[4] = test system: HCV genotype 1a replicon, NS5A M28T Q30H; test: Transient replication assay, GT1a NS5A M28T Q30H
[5] = test system: HCV genotype 1a replicon, NS5A M28V Q30R; test: Transient replication assay, GT1a NS5A M28V Q30R
[6] = test system: HCV genotype 1a replicon, NS5A Q30R Y93H; test: Transient replication assay, GT1a NS5A Q30R Y93H

SMILES | EC50 [1] | EC50 [2] | EC50 [3] | EC50 [4] | EC50 [5] | EC50 [6]
COC(=O)N[C@H](C(=O)N1C[C@]2(CCCOC2)C[C@H]1c1ncc(-c2ccc(-c3ccc4c(ccc5nc([C@@H]6C[C@@H]7CCC[C@@H]7N6C(=O)[C@@H](NC(=O)OC)C(C)C)[nH]c54)c3)cc2)[nH]1)C(C)C [Compound 16] | 0.49 nM | 0.02 nM | 1.2 nM | 24 nM | 0.16 nM | 38 nM
COC(=O)N[C@H](C(=O)N1CCC[C@H]1c1nc(-c2ccc(-c3ccc(-c4c[nH]c([C@@H]5CCCN5C(=O)[C@@H](NC(=O)OC)C(C)C)n4)cc3)cc2)c[nH]1)C(C)C [Daclatasvir, reference compound] | 5.8 nM | 0.016 nM | 8 nM | 733 nM | 1.2 nM | 243 nM
